Source: patent US20250171473A1, “Phosphorous Containing BCL Inhibitors and Senolytic Compounds and Uses Thereof” (Rubedo Life Sciences, Inc., priority 2023, published 2025)

Columns and labels:
Type in all cases: cell-based
senescent A549 cells = test: Senescence assay, viability of senescent A549 cells (CellTiter-Glo or XTT); conditions: Homo sapiens; chemotherapy-induced senescent A549 cells; compounds 24-72 hours; viability relative to untreated control; read-out: Absolute IC50 average A549_SEN IC50
Description: (§1) Cells were maintained in DMEM media (high glucose, 4 mM L-glutamine, no sodium pyruvate) supplemented with 10% fetal bovine serum in a humidified incubator at 37° C. with 5% carbon dioxide. Senescence was induced via treatment with a sublethal concentration of chemotherapy (bleomycin, gemcitabine, doxorubicin, 5-fluorouridine, mitomycin C), followed by a rest period without chemotherapy similarly to what is reported by others in the field (e.g., Aoshiba et al., 2003 Eur Respir J 22:436-443). Senescence was qualified by low EdU (5-ethynyl-2′-deoxyuridine) incorporation and high SA-β-Gal (senescence-associated beta-galactosidase) staining compared to proliferating untreated cells. Senescent cells were plated into 96-well plates at a density of 5-15,000 cells/well. The next day, compounds were added in duplicate across ten different concentrations spanning roughly four Log10 units. Cells were incubated with the compounds for 24-72 hours, at which point viability was quantified using CellTiter-Glo (Promega) or XTT (R&D Systems). The viability for treated cells was determined relative to untreated control cells. The log of the compound concentration vs. normalized mean viability was fit to a four parameters Hill function with variable slope. The bottom was constrained to be greater than zero. The X mean value for Y=50 was interpolated to determine the absolute IC50. The results in Table 1 indicate that many of the compounds are active in cells and can induce a dose dependent decrease in the viability of senescent A549 and IMR90 cells.

senescent IMR90 cells = test: Senescence assay, viability of senescent IMR90 cells (CellTiter-Glo or XTT); conditions: Homo sapiens, IMR-90; chemotherapy-induced senescent IMR90 cells; compounds 24-72 hours; viability relative to untreated control; read-out: Absolute IC50 average IMR90_SEN IC50
Description: as §1

HACAT_SEN = test: Senescence assay, viability of senescent HACAT cells (CellTiter-Glo or XTT); conditions: Homo sapiens, compounds 24-72 hours, viability relative to untreated control, read-out: Absolute IC50 average HACAT_SEN IC50
Description: as §1, with “The results in Table 1 indicate that many of the compounds are active in cells and can induce a dose dependent decrease in the viability of senescent A549 and IMR90 cells.” left out

Row | Compound | IC50 (senescent A549 cells) | IC50 (senescent IMR90 cells) | IC50 (HACAT_SEN)
1 | CCOP(C)(=O)c1nc(N2CCc3cccc(C(=O)Nc4nc5ccccc5s4)c3C2)ccc1-c1cnn(CC23CC4CC(CC(C4)C2)C3)c1C (stereo not drawn) [Compound 1, ethyl(3-(1-(((3r,5r,7r)-adamantan-1-yl)methyl)-5-methyl-1H-pyrazol-4-yl)-6-(8-(benzo[d]thiazol-2-ylcarbamoyl)-3,4-dihydroisoquinolin-2 (1H)-yl)pyridin-2-yl)(methyl)phosphinate] | 10 to 100 nM | 10 to 100 nM | < 10 nM
2 | Cc1c(-c2ccc(N3CCc4cccc(C(=O)Nc5nc6ccccc6s5)c4C3)nc2P(C)(=O)O)cnn1CC12CC3CC(CC(C3)C1)C2 [Compound 2, (3-(1-(((3r,5r,7r)-adamantan-1-yl)methyl)-5-methyl-1H-pyrazol-4-yl)-6-(8-(benzo[d]thiazol-2-ylcarbamoyl)-3,4-dihydroisoquinolin-2 (1H)-yl)pyridin-2-yl)(methyl)phosphinic acid] | 10 to 100 nM | 100 to 1000 nM | 
3 | Cc1c(-c2ccc(N3CCc4cccc(C(=O)Nc5nc6ccccc6s5)c4C3)nc2P(C)(=O)OCc2ccc(O[C@@H]3O[C@@H](C)[C@@H](O)[C@@H](O)[C@@H]3O)cc2)cnn1CC12CC3CC(CC(C3)C1)C2 (stereo partly drawn) [Compound 3, 4-(((2S,3S,4R,5S,6S)-3,4,5-trihydroxy-6-methyltetrahydro-2H-pyran-2-yl)oxy) benzyl(3-(1-(((3r,5r,7r)-adamantan-1-yl)methyl)-5-methyl-1H-pyrazol-4-yl)-6-(8-(benzo[d]thiazol-2-ylcarbamoyl)-3,4-dihydroisoquinolin-2 (1H)-yl)pyridin-2-yl)(methyl)phosphinate] | 10 to 100 nM | 100 to 1000 nM | 
4 | Cc1cc(N(C)c2nc(P(C)(=O)O)c(CCCOc3ccc(C#CCN(C)C)cc3F)s2)nnc1Nc1nc2ccccc2s1 [Compound 4, (2-((6-(benzo[d]thiazol-2-ylamino)-5-methylpyridazin-3-yl)(methyl)amino)-5-(3-(4-(3-(dimethylamino)prop-1-yn-1-yl)-2-fluorophenoxy)propyl)thiazol-4-yl)(methyl)phosphinic acid] | 100 to 1000 nM | 1000 to 10000 nM | 
